In patent publication US20220151236A1, “NOVEL OXADIAZOLE COMPOUNDS FOR CONTROLLING OR PREVENTING PHYTOPATHOGENIC FUNGI” (PI INDUSTRIES LTD., priority 2019, published 2022):
Where a name gives a salt, the structure may show the parent alone.

tested on: Phakopsora pachyrhizi; experiment: Phakopsora pachyrhizi Test on Soybean (preventive activity, greenhouse); assay type: in vivo; conditions: preventive spray on young Soybean plants, inoculated one day after treatment, rated 3, 7, 10 and 15 days after application, read-out: Efficacy (% control), disease severity compared to the untreated check
Description: Compounds were dissolved in 2% dimethyl sulfoxide/acetone and then mixed with water containing an emulsifier to a calibrated spray volume of 50 mL. This 50 mL spray solution was poured into spray bottles for further applications. To test the preventive activity of compounds, healthy young Soybean plants raised in the greenhouse were sprayed with the active compound preparation at the stated application rates inside the spray cabinets using hollow cone nozzles. One day after treatment, the plants were inoculated with a spore suspension containing 2×10^5 Phakopsora pachyrhizi conidia. The inoculated plants were then kept in a greenhouse chamber at 22-24° C. temperature and 80-90% relative humidity for disease expression. A visual assessment of the compound's performance was carried out by rating the disease severity (0-100% scale) on treated plants 3, 7, 10 and 15 days after application. Efficacy (% control) of the compounds was calculated by comparing the disease rating in the treatment with the one of the untreated control. The sprayed plants were also assessed for plant compatibility by recording symptoms like necrosis, chlorosis and stunting.

| SMILES | pest or weed control at 500 ppm |
| --- | --- |
| CC(C)CN(C)C(=O)c1cn2cc(-c3noc(C(F)(F)F)n3)ccc2n1 [Compound 78, N-isobutyl-N-methyl-6-(5-(trifluoromethyl)-1,2,4-oxadiazol-3-yl)imidazo[1,2-a]pyridine-2-carboxamide] | ≥ 70% |
| COC1CCN(C(=O)c2cn3cc(-c4noc(C(F)(F)F)n4)ccc3n2)C1 (stereo not shown) [Compound 68, (3-methoxypyrrolidin-1-yl)(6-(5-(trifluoromethyl)-1,2,4-oxadiazol-3-yl)imidazo[1,2-a]pyridin-2-yl)methanone] | ≥ 70% |
| O=C(NCc1cn2cc(-c3noc(C(F)(F)F)n3)ccc2n1)c1ccncc1 [Compound 99, N-((6-(5-(trifluoromethyl)-1,2,4-oxadiazol-3-yl)imidazo[1,2-a]pyridin-2-yl)methyl)isonicotinamide] | ≥ 70% |
| O=C(Nc1cccnc1)c1cn2ccc(-c3noc(C(F)(F)F)n3)cc2n1 [Compound 9, N-(pyridin-3-yl)-7-(5-(trifluoromethyl)-1,2,4-oxadiazol-3-yl)imidazo[1,2-a]pyridine-2-carboxamide] | ≥ 70% |
| COc1ccc(SCc2cn3cc(-c4noc(C(F)(F)F)n4)ccc3n2)cc1 [Compound 100, 3-(2-(((4-methoxyphenyl)thio)methyl)imidazo[1,2-a]pyridin-6-yl)-5-(trifluoromethyl)-1,2,4-oxadiazole] | ≥ 70% |
| O=C(NCc1ccc(Cl)cc1)c1cn2ccc(-c3noc(C(F)(F)F)n3)cc2n1 [Compound 38, N-(4-chlorobenzyl)-7-(5-(trifluoromethyl)-1,2,4-oxadiazol-3-yl)imidazo[1,2-a]pyridine-2-carboxamide] | ≥ 70% |
| O=C(Nc1ccccc1F)c1cn2ccc(-c3noc(C(F)(F)F)n3)cc2n1 [Compound 7, N-(2-fluorophenyl)-7-(5-(trifluoromethyl)-1,2,4-oxadiazol-3-yl)imidazo[1,2-a]pyridine-2-carboxamide] | ≥ 70% |
| O=C(Nc1ccc(Cl)cc1)c1cn2cc(-c3noc(C(F)(F)F)n3)ccc2n1 [Compound 18, N-(4-chlorophenyl)-6-(5-(trifluoromethyl)-1,2,4-oxadiazol-3-yl)imidazo[1,2-a]pyridine-2-carboxamide] | ≥ 70% |
| COc1cccc(NC(=O)c2cn3cc(-c4noc(C(F)(F)F)n4)ccc3n2)c1 [Compound 16, N-(3-methoxyphenyl)-6-(5-(trifluoromethyl)-1,2,4-oxadiazol-3-yl)imidazo[1,2-a]pyridine-2-carboxamide] | ≥ 70% |
| O=C(NCc1cn2cc(-c3noc(C(F)(F)F)n3)ccc2n1)c1ccc(Cl)cc1 [Compound 83, 4-chloro-N-((6-(5-(trifluoromethyl)-1,2,4-oxadiazol-3-yl)imidazo[1,2-a]pyridin-2-yl)methyl)benzamide] | ≥ 70% |
| COc1ccc(CSCc2cn3cc(-c4noc(C(F)(F)F)n4)ccc3n2)cc1 [Compound 109, 3-(2-(((4-methoxybenzyl)thio)methyl)imidazo[1,2-a]pyridin-6-yl)-5-(trifluoromethyl)-1,2,4-oxadiazole] | ≥ 70% |
| N=S(=O)(Cc1cn2ccc(-c3noc(C(F)(F)F)n3)cc2n1)c1ccc(Cl)cc1 (stereo not shown) [Compound 166, (4-chlorophenyl)(imino)((7-(5-(trifluoromethyl)-1,2,4-oxadiazol-3-yl)imidazo[1,2-a]pyridin-2-yl)methyl)-λ^6-sulfanone] | ≥ 70% |
| FC(F)(F)c1nc(-c2ccc3nc(CSc4ccc(Cl)c(Cl)c4)cn3c2)no1 [Compound 110, 3-(2-(((3,4-dichlorophenyl)thio)methyl)imidazo[1,2-a]pyridin-6-yl)-5-(trifluoromethyl)-1,2,4-oxadiazole] | ≥ 70% |
| O=S(=O)(Cc1cn2cc(-c3noc(C(F)(F)F)n3)ccc2n1)c1ccc(F)cc1 [Compound 121, 3-(2-(((4-fluorophenyl)sulfonyl)methyl)imidazo[1,2-a]pyridin-6-yl)-5-(trifluoromethyl)-1,2,4-oxadiazole] | ≥ 70% |
| O=C(NCc1ccccc1F)c1cn2ccc(-c3noc(C(F)(F)F)n3)cc2n1 [Compound 42, N-(2-fluorobenzyl)-7-(5-(trifluoromethyl)-1,2,4-oxadiazol-3-yl)imidazo[1,2-a]pyridine-2-carboxamide] | ≥ 70% |
| N#CC1(NC(=O)c2cn3cc(-c4noc(C(F)(F)F)n4)ccc3n2)CC1 [Compound 73, N-(1-cyanocyclopropyl)-6-(5-(trifluoromethyl)-1,2,4-oxadiazol-3-yl)imidazo[1,2-a]pyridine-2-carboxamide] | ≥ 70% |
| CCOC(=O)c1cn2ccc(-c3noc(C(F)(F)F)n3)cc2n1 [Compound 45, ethyl 7-(5-(trifluoromethyl)-1,2,4-oxadiazol-3-yl)imidazo[1,2-a]pyridine-2-carboxylate hydrobromide] | ≥ 70% |
| [O-][S+](Cc1cn2cc(-c3noc(C(F)(F)F)n3)ccc2n1)c1ccc(Cl)c(Cl)c1 (stereo not shown) [Compound 126, 3-(2-(((3,4-dichlorophenyl)sulfinyl)methyl)imidazo[1,2-a]pyridin-6-yl)-5-(trifluoromethyl)-1,2,4-oxadiazole] | ≥ 70% |
| O=C(NCc1ccc(C(F)(F)F)cc1)c1cn2ccc(-c3noc(C(F)(F)F)n3)cc2n1 [Compound 8, 7-(5-(trifluoromethyl)-1,2,4-oxadiazol-3-yl)-N-(4-(trifluoromethyl)benzyl)imidazo[1,2-a]pyridine-2-carboxamide] | ≥ 70% |
| COc1ccc(NC(=O)c2cn3cc(-c4noc(C(F)(F)F)n4)ccc3n2)cc1 [Compound 22, N-(4-methoxyphenyl)-6-(5-(trifluoromethyl)-1,2,4-oxadiazol-3-yl)imidazo[1,2-a]pyridine-2-carboxamide] | ≥ 70% |
| O=C(Nc1ccccc1F)c1cn2cc(-c3noc(C(F)(F)F)n3)ccc2n1 [Compound 20, N-(2-fluorophenyl)-6-(5-(trifluoromethyl)-1,2,4-oxadiazol-3-yl)imidazo[1,2-a]pyridine-2-carboxamide] | ≥ 70% |
| Fc1ccc(SCc2cn3cc(-c4noc(C(F)(F)F)n4)ccc3n2)cc1 [Compound 105, 3-(2-(((4-fluorophenyl)thio)methyl)imidazo[1,2-a]pyridin-6-yl)-5-(trifluoromethyl)-1,2,4-oxadiazole] | ≥ 70% |
| O=C(Nc1ccc(F)cc1F)c1cn2ccc(-c3noc(C(F)(F)F)n3)cc2n1 [Compound 5, N-(2,4-difluorophenyl)-7-(5-(trifluoromethyl)-1,2,4-oxadiazol-3-yl)imidazo[1,2-a]pyridine-2-carboxamide] | ≥ 70% |
| O=C(NCc1cn2cc(-c3noc(C(F)(F)F)n3)ccc2n1)c1ccc(F)cc1 [Compound 90, 4-fluoro-N-((6-(5-(trifluoromethyl)-1,2,4-oxadiazol-3-yl)imidazo[1,2-a]pyridin-2-yl)methyl)benzamide] | ≥ 70% |
| CN(Cc1ccccc1)C(=O)c1cn2cc(-c3noc(C(F)(F)F)n3)ccc2n1 [Compound 71, N-benzyl-N-methyl-6-(5-(trifluoromethyl)-1,2,4-oxadiazol-3-yl)imidazo[1,2-a]pyridine-2-carboxamide] | ≥ 70% |
